# According to patent US8541572B2:
# Where two headings read alike, the source gives them in different places.
# Tests used:
# [1] = Area under the curve determination of plasma levels in rats (rrAUC); assay type: in vivo; settings: rat, oral 10 mg/kg
# [2] = system: TNF-α production in LPS-stimulated human whole blood; test: Inhibition of TNF-α production from human whole blood (hWBA); assay type: cell-based; settings: LPS-stimulated human whole blood, read-out: hWBA
# [3] = plasma 0.5-6 h post-dosing, read-out: RR AUC
# [4] = IC50 for inhibition of TNF-α production
# [5] = plasma 0.5-6 h, read-out: RR AUC (nM · h), rapid rat AUC (rrAUC)
# [6] = Homo sapiens, IC50 for inhibition of TNF-α production
compound,measurement,setting,value
COc1ccc2c(c1)C(=O)N(C[C@@]1(C#Cc3ccc(N4C(=O)CCC4C(=O)NC4CC4)cc3)NC(=O)NC1=O)C2 (some centres unmarked) [Compound 1902],AUC,[1]; [3],25 nM·h
COc1ccc2c(c1)C(=O)N(C[C@@]1(C#Cc3ccc(C(N)C(F)(F)F)cc3)NC(=O)NC1=O)C2 (some centres unmarked) [Compound 300],AUC,[1]; [3],2600 nM·h
COc1ccc2c(c1)C(=O)N(C[C@@]1(C#Cc3ccc4c(c3)c(N)nn4C)NC(=O)NC1=O)C2 [Compound 746],AUC,[1]; [3],82 nM·h
COc1ccc2c(c1)C(=O)N(C[C@@]1(C#Cc3ccc(-c4cc[nH]n4)nc3)NC(=O)NC1=O)C2 [Compound 2235],IC50,[2]; [4],0.231 µM
same,AUC,[1]; [3],230 nM·h
CCN1CCN(Cc2ccc(C#C[C@]3(CN4Cc5ccc(OC)c(F)c5C4=O)NC(=O)NC3=O)cc2)CC1 [Compound 974],IC50,[2]; [4],0.125 µM
same,AUC,[1]; [3],34 nM·h
COc1ccc2c(c1F)C(=O)N(C[C@@]1(C#Cc3cncc(F)c3)NC(=O)NC1=O)C2 [Compound 1310],AUC,[1]; [3],1770 nM·h
COc1ccc2c(c1F)C(=O)N(C[C@@]1(C#Cc3ccc(C4(O)CCNCC4)cc3)NC(=O)NC1=O)C2 [Compound 1701],AUC,[1]; [3],41 nM·h
COc1ccc2c(c1)C(=O)N(C[C@@]1(C#Cc3cccnc3-c3cnn(C)c3)NC(=O)NC1=O)C2 [Compound 2263],IC50,[2]; IC50 for TNF-α production,2.22 µM
same,AUC,[1]; [5],187 nM·h
COc1ccc2c(c1)C(=O)N(C[C@@]1(C#Cc3ccc(C(=NO)N4CCOCC4)cc3)NC(=O)NC1=O)C2 [Compound 941],IC50,[2]; IC50 for TNF-α production,0.1 µM
same,AUC,[1]; [5],58 nM·h
COc1ccc2c(c1F)C(=O)N(C[C@@]1(C#Cc3ccc(C4(C(N)=O)CCN(C)CC4)cc3)NC(=O)NC1=O)C2 [Compound 1314],IC50,[2]; [4],0.152 µM
same,AUC,[1]; [3],16 nM·h
CCN1CCN(Cc2ccc(C#C[C@]3(CN4Cc5ccc(OC)cc5C4=O)NC(=O)NC3=O)cc2)CC1 [Compound 933],IC50,[2]; IC50 for TNF-α production,0.238 µM
same,AUC,[1]; [5],24 nM·h
COc1ccc2c(c1)C(=O)N(C[C@@]1(C#Cc3ccc(-c4ccccc4O)nc3)NC(=O)NC1=O)C2 [Compound 2277],IC50,[2]; IC50 for TNF-α production,2.09 µM
same,AUC,[1]; [5],271 nM·h
COc1ccc2c(c1)C(=O)N(C[C@@]1(C#Cc3ccc(F)c(C(O)(O)C(F)(F)F)c3)NC(=O)NC1=O)C2 [Compound 2251],AUC,[1]; [5],171 nM·h
COc1ccc2c(c1)C(=O)N(C[C@@]1(C#Cc3ccc(-c4noc(C)n4)cc3)NC(=O)NC1=O)C2 [Compound 2253],IC50,[2]; IC50 for TNF-α production,2.43 µM
same,AUC,[1]; [5],4140 nM·h
COc1ccc2c(c1Cl)C(=O)N(CC1(C#Cc3cccnc3)NC(=O)NC1=O)C2 (centres unmarked) [Compound 2247],IC50,[2]; [4],1 µM
same,AUC,[1]; [3],380 nM·h
COc1ccc2c(c1)C(=O)N(C[C@@]1(C#Cc3cc(Cl)cnc3N)NC(=O)NC1=O)C2 [Compound 2248],AUC,[1]; [3],4040 nM·h
COc1ccc2c(c1)C(=O)N(C[C@@]1(C#Cc3ccc(C(=NO)c4ccc(F)cc4)cc3)NC(=O)NC1=O)C2 [Compound 2245],IC50,[2]; [6],0.954 µM
same,AUC,[1]; [3],1070 nM·h
COc1ccc2c(c1)C(=O)N(C[C@@]1(C#Cc3ccc4c(c3)CN(C)C(=O)N4)NC(=O)NC1=O)C2 [Compound 306],AUC,[1]; [3],12 nM·h
COc1ccc2c(c1)C(=O)N(C[C@@]1(C#Cc3ccc(C4(C)NC(=O)NC4=O)c(F)c3)NC(=O)NC1=O)C2 (some centres unmarked) [Compound 2282],IC50,[2]; IC50 for TNF-α production,0.243 µM
same,AUC,[1]; [5],42 nM·h
COc1ccc2c(c1)C(=O)N(C[C@@]1(C#Cc3ccc(-c4noc(C(C)C)n4)cc3)NC(=O)NC1=O)C2 [Compound 1505],AUC,[1]; [3],243 nM·h
COc1ccc2c(c1)C(=O)N(C[C@@]1(C#Cc3ccc(-c4c(C)nn(C)c4C)nc3)NC(=O)NC1=O)C2 [Compound 2268],IC50,[2]; IC50 for TNF-α production,9.03 µM
same,AUC,[1]; [5],1070 nM·h
COc1ccc2c(c1)C(=O)N(C[C@@]1(C#Cc3ccc(-c4cc(N)n(C)n4)cc3)NC(=O)NC1=O)C2 [Compound 709],AUC,[1]; [3],357 nM·h
COc1ccc2c(c1F)C(=O)N(C[C@@]1(C#Cc3ccc(N4C(=O)CCC4C(=O)NC4CC4)cc3)NC(=O)NC1=O)C2 (some centres unmarked) [Compound 1904],IC50,[2]; [4],0.278 µM
same,AUC,[1]; [3],213 nM·h
COc1ccc2c(c1)C(=O)N(C[C@@]1(C#Cc3ccc(C(O)(O)C(F)(F)F)cc3)NC(=O)NC1=O)C2 [Compound 2252],IC50,[2]; IC50 for TNF-α production,0.258 µM
same,AUC,[1]; [5],768 nM·h
COc1ccc2c(c1F)C(=O)N(C[C@@]1(C#Cc3cccnc3)NC(=O)NC1=O)C2 [Compound 2267],IC50,[2]; IC50 for TNF-α production,0.134 µM
same,AUC,[1]; [5],2440 nM·h
CON=C(c1ccc(C#C[C@]2(CN3Cc4ccc(OC)cc4C3=O)NC(=O)NC2=O)cc1)N1CCOCC1 [Compound 932],AUC,[1]; [5],3170 nM·h
COc1ccc2c(c1F)C(=O)N(C[C@@]1(C#Cc3ccc(C4(C)NC(=O)NC4=O)c(F)c3)NC(=O)NC1=O)C2 (some centres unmarked) [Compound 1302],AUC,[1]; [3],5640 nM·h
COc1ccc2c(c1)C(=O)N(C[C@@]1(C#Cc3ccc4c(c3)CC[C@@]43NC(=O)NC3=O)NC(=O)NC1=O)C2 [Compound 2314],AUC,[1]; [5],218 nM·h
COc1ccc2c(c1)C(=O)N(C[C@@]1(C#Cc3ccc4c(c3)CC[C@]43NC(=O)NC3=O)NC(=O)NC1=O)C2 [Compound 2313],AUC,[1]; [5],530 nM·h
CCN1CCN(c2n[nH]c3ccc(C#C[C@]4(CN5Cc6ccc(OC)cc6C5=O)NC(=O)NC4=O)cc23)CC1 [Compound 2238],IC50,[2]; [4],0.422 µM
COc1ccc2c(c1)C(=O)N(C[C@@]1(C#Cc3ccc(-c4nnc[nH]4)cc3OC)NC(=O)NC1=O)C2 [Compound 2223],IC50,[2]; [4],0.131 µM
COc1ccc2c(c1)C(=O)N(C[C@@]1(C#Cc3ccc([C@H]4CCC(=O)N4)cc3)NC(=O)NC1=O)C2 [Compound 2259],AUC,[1]; [5],126 nM·h
COc1ccc2c(c1)C(=O)N(C[C@@]1(C#Cc3ccc(C(=NO)N4CCCN(C(C)C)CC4)cc3)NC(=O)NC1=O)C2 [Compound 931],IC50,[2]; IC50 for TNF-α production,0.047 µM
CCNc1nnc(-c2ccc(C#C[C@]3(CN4Cc5ccc(OC)cc5C4=O)NC(=O)NC3=O)cc2)o1 [Compound 1920],IC50,[2]; [4],0.269 µM
COc1ccc2c(c1)CCN(C[C@@]1(C#Cc3ccc4c(c3)CCCC43NC(=O)NC3=O)NC(=O)NC1=O)C2=O (some centres unmarked) [Compound 2321],IC50,[2]; IC50 for TNF-α production,1.1 µM
COc1ccc2c(c1)C(=O)N(C[C@@]1(C#Cc3ccc(-c4nc(-c5cccnc5)ccc4O)cc3)NC(=O)NC1=O)C2 [Compound 971],IC50,[2]; [4],0.0803 µM
COc1ccc2c(c1)C(=O)N(C[C@@]1(C#Cc3ccc(C(=O)N4CCC(N5CCCCC5)CC4)cc3)NC(=O)NC1=O)C2 [Compound 963],IC50,[2]; [6],0.401 µM
COc1ccc2c(c1F)C(=O)N(C[C@@]1(C#Cc3ccc(-c4cccc(N5CCOCC5)n4)c(F)c3)NC(=O)NC1=O)C2 [Compound 996],IC50,[2]; [6],2.56 µM
COc1ccc2c(c1)C(=O)N(C[C@@]1(C#Cc3ccc(NC(=O)C4CCN(C)CC4)cc3)NC(=O)NC1=O)C2 [Compound 1909],IC50,[2]; [6],0.078 µM
COc1ccc2c(c1F)C(=O)N(C[C@@]1(C#Cc3ccc(-c4nc(-c5cnn(C)c5)ccc4OC(=O)C(C)(C)C)c(F)c3)NC(=O)NC1=O)C2 [Compound 1006],IC50,[2]; [4],0.0685 µM
COc1ccc2c(c1)C(=O)N(C[C@@]1(C#Cc3ccc4c(c3)C(C)Oc3cccnc3-4)NC(=O)NC1=O)C2 (some centres unmarked) [Compound 929],IC50,"[2]; Homo sapiens, IC50 for TNF-α production",3.55 µM
COc1ccc2c(c1)C(=O)N(C[C@@]1(C#Cc3cccnc3-c3ccncc3)NC(=O)NC1=O)C2 [Compound 2291],IC50,[2]; IC50 for TNF-α production,2.27 µM
COc1ccc2c(c1)C(=O)N(C[C@@]1(C#Cc3ccc(C4=NCCN4)cc3)NC(=O)NC1=O)C2 [Compound 2222],IC50,[2]; [4],0.227 µM
COc1ccc2c(c1F)C(=O)N(C[C@@]1(C#Cc3ccc(CN4CCN(c5ccncc5)CC4)nc3)NC(=O)NC1=O)C2 [Compound 979],IC50,[2]; [4],0.228 µM
COc1ccc2c(c1F)C(=O)N(C[C@@]1(C#Cc3cc(F)cnc3Cl)NC(=O)NC1=O)C2 [Compound 1312],IC50,[2]; [4],0.935 µM
COc1ccc2c(c1)CCN(C[C@@]1(C#Cc3ccc(C(=NO)N4CCN(C)CC4)cc3)NC(=O)NC1=O)C2=O [Compound 2320],IC50,[2]; IC50 for TNF-α production,0.261 µM
COc1ccc2c(c1)C(=O)N(C[C@@]1(C#Cc3cncc(-c4ccc(C(N)=O)o4)c3)NC(=O)NC1=O)C2 [Compound 2213],IC50,[2]; [6],0.776 µM
COc1ccc2c(c1)C(=O)N(C[C@@]1(C#Cc3cnc(N)c(C(=O)NS(C)(=O)=O)c3)NC(=O)NC1=O)C2 [Compound 904],IC50,[2]; IC50 for TNF-α production,10 µM
COc1ccc2c(c1)C(=O)N(C[C@@]1(C#Cc3ccc4c(O)n[nH]c4c3)NC(=O)NC1=O)C2 [Compound 748],IC50,[2]; [4],0.156 µM
COc1ccc2c(c1)C(=O)N(C[C@@]1(C#Cc3ccc(C4(C(N)=O)CC4)cc3)NC(=O)NC1=O)C2 [Compound 2260],IC50,[2]; IC50 for TNF-α production,0.227 µM
COc1ccc2c(c1)C(=O)N(C[C@@]1(C#Cc3ccc(C(=NO)C4CCN(C)CC4)cc3)NC(=O)NC1=O)C2 [Compound 2246],IC50,[2]; [4],0.04 µM
COc1ccc2c(c1)C(=O)N(C[C@@]1(C#Cc3nc(N4C[C@H](O)CC4=O)ccc3OC)NC(=O)NC1=O)C2 [Compound 1503],AUC,[1]; [3],35 nM·h
COc1ccc2c(c1)C(=O)N(C[C@@]1(C#Cc3ccc4c(N)nn(C)c4c3)NC(=O)NC1=O)C2 [Compound 718],AUC,[1]; [3],12 nM·h
COc1ccc2c(c1)C(=O)N(C[C@@]1(C#Cc3nc(-c4ccc(N5CCNCC5)nc4)ccc3OC)NC(=O)NC1=O)C2 [Compound 1511],IC50,[2]; [4],2.05 µM
COc1ccc2c(c1)C(=O)N(C[C@@]1(C#Cc3ccc(C(=NO)N4CCCN(C)CC4)cc3)NC(=O)NC1=O)C2 [Compound 913],IC50,[2]; IC50 for TNF-α production,0.045 µM
COc1ccc2c(c1)C(=O)N(C[C@@]1(C#Cc3ccc(-n4cncn4)cc3)NC(=O)NC1=O)C2 [Compound 2228],IC50,[2]; [4],1.14 µM
COc1ccc2c(c1F)C(=O)N(C[C@@]1(C#Cc3ccc(C(CN)N4CCC(N)C4)cc3)NC(=O)NC1=O)C2 (some centres unmarked) [Compound 1704],IC50,[2]; [4],0.109 µM
COc1ccc2c(c1)C(=O)N(C[C@@]1(C#Cc3nc(N)ccc3O)NC(=O)NC1=O)C2 [Compound 1921],IC50,[2]; [4],0.808 µM
C#C[C@]1(CN2Cc3ccc(OC)c(F)c3C2=O)NC(=O)NC1=O [Compound 23],IC50,[2]; IC50 for TNF-α production,0.841 µM
COc1ccc2c(c1)C(=O)N(C[C@@]1(C#Cc3ccc(-c4cnn(C)c4)nc3)NC(=O)NC1=O)C2 [Compound 2269],AUC,[1]; [5],924 nM·h
COc1ccc2c(c1)C(=O)N(C[C@@]1(C#Cc3ccc(-c4nc(-c5cnn(C)c5)ccc4OC(=O)C(C)(C)C)cc3)NC(=O)NC1=O)C2 [Compound 990],IC50,[2]; [4],0.0428 µM
COc1ccc2c(c1)C(=O)N(C[C@@]1(C#Cc3ccc4c(O)nn(C)c4c3)NC(=O)NC1=O)C2 [Compound 715],IC50,[2]; [4],0.456 µM
